# Like-named read-outs stand apart in the source and are kept apart here.
# Tests used:
# CDK1/CycB = CDK1/CycB (Homo sapiens (Human), UniProt P06493); assay: CDK1/CycB kinase assay (Assay 1); format: biochemical; settings: read-out: CDK1/CycB (Assay 1) Concentration of the half-maximal inhibition of the enzyme activity, IC50
# Experimental: CDK1/CycB (200 ng/measuring point) was incubated for 10 min at 22° C. in the presence of different concentrations of test substances (0 and within the range 0.001-10 μM) in assay buffer [50 mM Tris/HCl pH 8.0; 10 mM MgCl2; 0.1 mM Na ortho-vanadate; 1.0 mM dithiothreitol; 0.5 μM adenosine trisphosphate (ATP); 10 μg/measuring point histone IIIS; 0.2 μCi/measuring point ^33P-gamma ATP; 0.05% NP40; 1.25% dimethyl sulphoxide]. The reaction was stopped by adding EDTA solution (250 mM; pH 8.0; 15 μl/measuring point).
# From each reaction mixture, 15 μl were applied to P30 filter strips (Wallac), and unincorporated ^33P-ATP was removed by washing the filter strips three times, for 10 min in each case, in 0.5% phosphoric acid. After drying the filter strips for 1 hour at 70°, the filter strips were covered with scintillator strips (MeltiLex™ A, Wallac) and stoved for 1 hour at 90° C. The amount of incorporated ^33P (substrate phosphorylation) was determined by scintillation measurement in a gamma-radiation measuring instrument (Wallac). […] The IC50 values were determined by means of a 4-parameter fit using the company's own software.
# CDK2/CycE = CDK2/CycE (Homo sapiens (Human), UniProt P24941); assay: CDK2/CycE kinase assay (Assay 2); format: biochemical; settings: read-out: CDK2/CycE (Assay 2) Concentration of the half-maximal inhibition of the enzyme activity, IC50
# Experimental: Recombinant CDK2 and CycE-GST fusion proteins, purified from baculovirus-infected insect cells (Sf9), were purchased from ProQinase GmbH, Freiburg. Histone IIIS, which was used as kinase substrate, was purchased from Sigma.
# CDK2/CycE (50 mg/measuring point) was incubated for 10 min at 22° C. in the presence of different concentrations of test substances (0 μM, and within the range 0.001-10 μM) in assay buffer [50 mM Tris/HCl pH 8.0; 10 mM MgCl2; 0.1 mM Na ortho-vanadate; 1.0 mM dithiothreitol; 0.5 μM adenosine trisphosphate (ATP); 10 μg/measuring point histone IIIS; 0.2 μCi/measuring point ^33P-gamma ATP; 0.05% NP40; 1.25% dimethyl sulphoxide]. The reaction was stopped by adding EDTA solution (250 mM; pH 8.0; 15 μl/measuring point).
# (§2) From each reaction mixture, 15 μl were applied to P30 filter strips (Wallac), and unincorporated ^33P-ATP was removed by washing the filter strips three times, for 10 min in each case, in 0.5% phosphoric acid. After drying the filter strips for 1 hour at 70° C., the filter strips were covered with scintillator strips (MeltiLex™ A, Wallac) and stoved for 1 hour at 90° C. The amount of incorporated ^33P (substrate phosphorylation) was determined by scintillation measurement in a gamma-radiation measuring instrument (Wallac). […] The IC50 values were determined by means of a 4-parameter fit using the company's own software.
# CDK4/CycD1 = CDK4/CycD1 (Homo sapiens (Human), UniProt P11802); assay: CDK4/CycD kinase assay (Assay 3); format: biochemical; settings: read-out: CDK4/CycD (Assay 3) Concentration of the half-maximal inhibition of the enzyme activity, IC50
# Experimental: Recombinant CDK4 and CycD1-GST fusion proteins, purified from baculovirus-infected insect cells (Sf9), were purchased from ProQinase GmbH, Freiburg. CDK4/CycD1 (250 ng/measuring point) was incubated for 3 hours at 22° C. in the presence of different concentrations of test substances (0 μM, and within the range 0.001-10 μM) in 31 μl of assay buffer [50 mM Hepes pH 7.0; 2.5 mM MnCl; 0.05 mM Na ortho-vanadate; 1.0 mM dithiothreitol; 0.25 μM adenosine trisphosphate (ATP); 0.5 μM biotinylated myelin basic protein (bio-MPB, GE Healthcare); 0.05 μCi/measuring point ^33P-gamma ATP; 0.005% NP40; 0.025% bovine serum albumin; 3% dimethyl sulphoxide]. The reaction was stopped by adding 50 μl of stop-mix [100 μM ATP; 10 mM EDTA pH 8.0; 0.2% Triton X100; 0.125 mg of streptavidin-SPA Beads (GE Healthcare)]. After incubation for 10 min at room temperature, the SPA beads were pelleted by centrifugation (10 min; 1500 g). The amount of incorporated ^33P (substrate phosphorylation) was determined by scintillation measurement in a beta-radiation measuring instrument (Microbeta, Perkin Elmer).
# [1] = test system: HeLa-MaTu, human cervix carcinoma cells; assay: Proliferation assay (Assay 5), HeLa-MaTu; format: cell-based; settings: 96 h, read-out: Concentration of the half-maximal inhibition of the cell proliferation, IC50
# Source text: (§1) Cultivated human tumour cells (MCF7, hormone-independent human breast carcinoma cells, acquired from ATCC HTB22; NCI-H460, human non-small-cell lung carcinoma cells, ATCC HTB-177; DU 145, hormone-independent human prostrate carcinoma cells, ATCC HTB-81; HeLa-MaTu, human cervix carcinoma cells, EPO-GmbH, Berlin; HeLa-MaTu-MDR, multiple drug-resistant human cervix carcinoma cells, EPO-GmbH, Berlin; Caco-2, human colon carcinoma cells, ATCC HTB-37; B16F10, murine melanoma cell, ATCC CRL-6475) were plated out at a density of ca. 1000-5000 cells/measuring point, depending on the growth rate of the particular cells, in a 96-well multititre plate in 200 μl of the corresponding growth medium. After 24 hours, the cells of one plate (zero-point plate) were stained with crystal violet (see below), whereas the medium of the other plates was replaced with fresh culture medium (200 μl), to which the test substances had been added at different concentrations (0 μM, and in the range 0.003-3 μM; the final concentration of the solvent dimethyl sulphoxide was 0.5%). The cells were incubated for 4 days in the presence of the test substances. Cell proliferation was determined by staining the cells with crystal violet: the cells were fixed by adding 20 μl/measuring point of an 11% glutaraldehyde solution for 15 min at room temperature. After washing the fixed cells with water three times, the plates were dried at room temperature. The cells were stained by adding 100 μl/measuring point of a 0.1% crystal violet solution (pH adjusted to pH 3 by adding acetic acid). After washing the stained cells with water three times, the plates were dried at room temperature. The dye was dissolved by adding 100 μl/measuring point of a 10% acetic acid solution. The extinction was determined photometrically at a wavelength of 595 nm. […] The IC50 values were determined by means of a 4-parameter fit using the company's own software.
# [2] = test system: HeLa-MaTu-ADR (HeLa-MaTu-MDR, multiple drug-resistant human cervix carcinoma cells); assay: Proliferation assay (Assay 5), HeLa-MaTu-ADR; format: cell-based; settings: 96 h, read-out: Concentration of the half-maximal inhibition of the cell proliferation, IC50
# Source text: as §1
# [3] = test system: MCF7, hormone-independent human breast carcinoma cells; assay: Proliferation assay (Assay 5), MCF7; format: cell-based; settings: read-out: Concentration of the half-maximal inhibition of the cell proliferation, IC50
# Source text: as §1
# [4] = test system: NCI-H460, human non-small-cell lung carcinoma cells; assay: Proliferation assay (Assay 5), NCI-H460; format: cell-based; settings: read-out: Concentration of the half-maximal inhibition of the cell proliferation, IC50
# Source text: as §1
# [5] = test system: DU 145, hormone-independent human prostrate carcinoma cells; assay: Proliferation assay (Assay 5), DU145; format: cell-based; settings: DU-145, 96 h, read-out: Concentration of the half-maximal inhibition of the cell proliferation, IC50
# Source text: as §1
# [6] = test system: Caco-2, human colon carcinoma cells; assay: Proliferation assay (Assay 5), Caco-2; format: cell-based; settings: read-out: Concentration of the half-maximal inhibition of the cell proliferation, IC50
# Source text: as §1
# [7] = test system: B16F10, murine melanoma cell; assay: Proliferation assay (Assay 5), B16F10; format: cell-based; settings: Mus musculus, B16-F10, 96 h, read-out: Concentration of the half-maximal inhibition of the cell proliferation, IC50
# Source text: as §1
# [8] = Permeability assay (Assay 6), Caco-2 monolayer; format: in vitro ADME; settings: human; for efflux ratio at 90 min: Caco-2, read-out: ratio (b-a)/(a-b); for Papp A→B at 90 min / Papp B→A at 90 min: Caco-2, 90 min, 37° C.; for Papp A→B at 90 min: read-out: Permeation coefficient, Papp apical-basolateral (a-b); for Papp B→A at 90 min: read-out: Permeation coefficient, Papp basolateral-apical (b-a)
# Experimental: The Caco-2 monolayer is a barrier between 2 compartments. The cells here behave similarly to the small intestine cells. Active ingredients can be transported either paracellularly or transcellularly. Here, the transport takes place in most cases from apical (luminal) to basolateral (serosal). In the case of p-glycoprotein substrates, back-transport from basolateral to apical is also usually observed.
# Experimental procedure: The permeability test is carried out both from apical to basolateral and also from basolateral to apical. For this, two filters are used per substance; incubation takes place over 90 min at 37° C. in a water bath. […] As reference substances, (i) PEG 4000 are used as hydrophilic marker. On account of its high molecular weight, it is unable to permeate into the cell membrane or into the pores of the tight junctions. PEG 4000 is therefore a marker of the intactness of the cell monolayer and the narrowness of the tight junctions. PEG 4000 is not absorbed in humans. (ii) Clonidine is known as completely absorbed substances in people (100%). They serve as markers for very highly permeable substances with Papp values above 100 nm/s. (iii) Digoxin is a known Pgp substrate. […] In the reverse experiment (basolateral to apical), the Papp values should be higher by a factor of about 10 as a result of the active directional transport into the apical compartment.
# The permeation coefficient Papp is used to estimate the absorption in people according to the following scheme: […]
# Caco-2 monolayer = settings: reference substance, cited from earlier work
# [9] = reference substance; cited from earlier work
# [10] = target: VEGF receptor tyrosine kinase-2 (VEGF-R2) (Homo sapiens (Human), UniProt P35968); assay: VEGF receptor-2 kinase assay (Assay 4); format: biochemical; settings: read-out: VEGF-R2 (Assay 4) Concentration of the half-maximal inhibition of the enzyme activity, IC50
# Sequence of VEGF receptor tyrosine kinase-2 (VEGF-R2) (P35968 20-1356, species assumed): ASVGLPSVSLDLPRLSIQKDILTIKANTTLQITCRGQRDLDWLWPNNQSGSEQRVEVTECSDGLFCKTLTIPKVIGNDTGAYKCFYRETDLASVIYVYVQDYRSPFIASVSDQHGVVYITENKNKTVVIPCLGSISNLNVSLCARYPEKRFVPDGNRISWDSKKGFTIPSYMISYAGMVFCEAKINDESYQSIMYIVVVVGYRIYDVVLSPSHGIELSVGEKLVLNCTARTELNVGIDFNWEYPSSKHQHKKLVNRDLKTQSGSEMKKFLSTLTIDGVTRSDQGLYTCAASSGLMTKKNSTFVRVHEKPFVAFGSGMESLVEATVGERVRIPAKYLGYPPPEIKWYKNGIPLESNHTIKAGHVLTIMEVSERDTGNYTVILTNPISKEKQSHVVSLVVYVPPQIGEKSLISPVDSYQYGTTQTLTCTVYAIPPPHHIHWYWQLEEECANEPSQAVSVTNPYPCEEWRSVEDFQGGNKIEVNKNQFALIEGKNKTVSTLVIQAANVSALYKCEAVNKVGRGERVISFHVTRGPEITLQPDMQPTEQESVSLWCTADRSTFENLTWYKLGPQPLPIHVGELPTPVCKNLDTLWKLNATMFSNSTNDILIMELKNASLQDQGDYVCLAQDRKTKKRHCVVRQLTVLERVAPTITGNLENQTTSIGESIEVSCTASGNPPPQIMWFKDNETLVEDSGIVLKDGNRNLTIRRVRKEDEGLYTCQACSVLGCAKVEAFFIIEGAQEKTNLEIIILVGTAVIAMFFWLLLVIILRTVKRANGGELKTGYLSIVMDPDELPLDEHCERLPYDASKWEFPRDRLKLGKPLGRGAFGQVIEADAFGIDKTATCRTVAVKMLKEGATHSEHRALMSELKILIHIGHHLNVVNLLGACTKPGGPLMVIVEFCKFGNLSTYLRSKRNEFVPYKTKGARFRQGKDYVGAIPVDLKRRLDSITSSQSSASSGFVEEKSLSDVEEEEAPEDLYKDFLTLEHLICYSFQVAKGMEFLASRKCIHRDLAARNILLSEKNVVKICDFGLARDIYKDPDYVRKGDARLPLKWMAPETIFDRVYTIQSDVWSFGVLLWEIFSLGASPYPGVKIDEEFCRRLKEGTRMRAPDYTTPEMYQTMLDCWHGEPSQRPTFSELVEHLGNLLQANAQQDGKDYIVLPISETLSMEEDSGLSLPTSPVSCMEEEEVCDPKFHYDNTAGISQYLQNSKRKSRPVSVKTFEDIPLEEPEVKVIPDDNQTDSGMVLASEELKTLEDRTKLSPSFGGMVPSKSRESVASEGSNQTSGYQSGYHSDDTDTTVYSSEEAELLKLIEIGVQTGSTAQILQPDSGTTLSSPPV
# Experimental: Recombinant VEGF receptor tyrosine kinase-2 was purified as GST fusion protein from baculovirus-infected insect cells (Sf9). Poly-(Glu4Tyr), which was used as kinase substrate, was purchased from Sigma.
# VEGF receptor tyrosine kinase (90 ng/measuring point) was incubated for 10 min at 22° C. in the presence of different concentrations of test substances (0 μM, and within the range 0.001-10 μM) in 30 μl of assay buffer [40 mM Tris/HCl pH 5.5; 10 mM MgCl2; 1 mM MnCl2; 3 μM Na ortho-vanadate; 1.0 mM dithiothreitol; 8 μM adenosine trisphosphate (ATP); 0.96 μg/measuring point poly-(Glu4Tyr); 0.2 μCi/measuring point ^33P-gamma ATP; 1.4% dimethyl sulphoxide]. The reaction was stopped by adding EDTA solution (250 mM; pH 8.0; 15 μl/measuring point).
# as §2
# Sequence of CDK1/CycB (P06493 whole entry): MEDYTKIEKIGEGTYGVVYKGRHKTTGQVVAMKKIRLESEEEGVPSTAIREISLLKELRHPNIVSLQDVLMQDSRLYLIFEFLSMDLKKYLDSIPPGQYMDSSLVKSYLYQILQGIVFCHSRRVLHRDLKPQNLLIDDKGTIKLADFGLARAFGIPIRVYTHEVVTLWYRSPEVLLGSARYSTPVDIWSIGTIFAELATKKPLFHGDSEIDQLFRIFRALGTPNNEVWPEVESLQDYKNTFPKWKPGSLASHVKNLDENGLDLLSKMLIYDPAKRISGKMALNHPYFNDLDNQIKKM
# Sequence of CDK1/CycB (P14635 whole entry partner): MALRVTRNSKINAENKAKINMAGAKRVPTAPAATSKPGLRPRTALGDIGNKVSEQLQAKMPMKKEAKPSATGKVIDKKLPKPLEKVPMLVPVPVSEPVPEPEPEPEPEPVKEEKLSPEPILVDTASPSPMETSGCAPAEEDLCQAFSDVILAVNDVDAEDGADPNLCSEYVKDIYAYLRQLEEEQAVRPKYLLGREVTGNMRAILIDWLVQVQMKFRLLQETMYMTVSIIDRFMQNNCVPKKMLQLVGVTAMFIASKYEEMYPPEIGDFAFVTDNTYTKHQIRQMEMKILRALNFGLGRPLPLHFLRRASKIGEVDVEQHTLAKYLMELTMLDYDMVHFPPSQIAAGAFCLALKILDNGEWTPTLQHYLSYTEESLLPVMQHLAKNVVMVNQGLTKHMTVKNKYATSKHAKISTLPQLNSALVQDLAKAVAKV
# Sequence of CDK4/CycD1 (P11802 whole entry, the tested form may be a part): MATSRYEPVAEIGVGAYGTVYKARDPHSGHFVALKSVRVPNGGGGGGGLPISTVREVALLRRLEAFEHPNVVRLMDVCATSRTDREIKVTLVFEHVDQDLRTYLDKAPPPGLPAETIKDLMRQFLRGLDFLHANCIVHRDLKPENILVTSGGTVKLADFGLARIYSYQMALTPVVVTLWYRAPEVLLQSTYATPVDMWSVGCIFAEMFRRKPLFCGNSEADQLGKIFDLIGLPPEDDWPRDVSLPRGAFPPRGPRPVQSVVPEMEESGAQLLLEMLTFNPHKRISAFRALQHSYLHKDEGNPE
# Sequence of CDK4/CycD1 (P24385 whole entry partner, the tested form may be a part): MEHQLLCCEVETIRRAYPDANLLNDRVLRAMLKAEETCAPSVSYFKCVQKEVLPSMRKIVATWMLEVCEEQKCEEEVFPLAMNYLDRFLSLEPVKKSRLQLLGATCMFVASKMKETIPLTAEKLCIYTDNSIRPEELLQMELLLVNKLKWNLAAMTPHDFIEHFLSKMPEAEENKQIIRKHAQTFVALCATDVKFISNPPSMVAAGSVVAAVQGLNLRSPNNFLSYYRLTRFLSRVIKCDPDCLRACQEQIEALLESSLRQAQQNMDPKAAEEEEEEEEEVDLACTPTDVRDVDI
Structure (SMILES),IC50 (CDK1/CycB) [nM],IC50 (CDK2/CycE) [nM],IC50 (CDK4/CycD1) [nM],"IC50 ([1]; HeLa-MaTu, 4 days) [nM]","IC50 ([2]; HeLa-MaTu-ADR, 4 days) [nM]","IC50 ([3]; 96 h, MCF7, 4 days) [nM]","IC50 ([4]; 96 h, NCI-H460, 4 days) [nM]","IC50 ([5]; DU145, 4 days) [nM]","IC50 ([6]; 96 h, Caco-2, 4 days) [nM]","IC50 ([7]; B16F10, 4 days) [nM]",efflux ratio at 90 min [8],Papp A→B at 90 min [8] [×10⁻⁶ cm/s],Papp B→A at 90 min [8] [×10⁻⁶ cm/s],also measured
"C[C@@H](O)[C@@H](C)Oc1nc(Nc2ccc(S(=O)(=O)C3CC3)cc2)ncc1C(F)(F)F [Example 1, (2R,3R)-3-[2-(4-Cyclopropanesulphonylphenylamino)-5-trifluoromethylpyrimidin-4-yloxy]butan-2-ol]",16,16,20,11,9,23,41,17,45,49,0.9,16.5,14.7,
C[C@H]1O[C@@H](O[C@H]2[C@@H](O)C[C@H](O[C@H]3[C@@H](O)C[C@H](O[C@H]4CC[C@@]5(C)[C@H](CC[C@@H]6[C@@H]5C[C@@H](O)[C@]5(C)[C@@H](C7=CC(=O)OC7)CC[C@]65O)C4)O[C@@H]3C)O[C@@H]2C)C[C@H](O)[C@@H]1O [Digoxin],,,,,,,,,,,,,,permeability from apical to basolateral (Caco-2 monolayer; Pgp substrate): low permeability
"C[C@@H](Oc1nc(Nc2ccc(S(C)(=O)=O)cc2)ncc1C(F)(F)F)C(C)(C)O [Example 3, (R)-3-[2-(4-Methanesulphonylphenylamino)-5-trifluoromethylpyrimidin-4-yloxy]-2-methylbutan-2-ol]",32,12,78,35,39,160,140,74,180,270,,,,
Clc1cccc(Cl)c1N=C1NCCN1 [Clonidine],,,,,,,,,,,,,,Papp values of reference marker (Caco-2 monolayer): above 100 nm/s; absorbed in people [9]: 100%
"C[C@@H](O)[C@@H](C)Oc1nc(Nc2ccc(S(C)(=O)=O)cc2)ncc1C(F)(F)F [Example 2, (2R,3R)-3-[2-(4-Methanesulphonylphenylamino)-5-trifluoromethylpyrimidin-4-yloxy]butan-2-ol]",,,24,,,,,,,,,19.6,19.4,"IC50 [1]: 14 nM; IC50 [2]: 14 nM; IC50 ([3]; MCF7, 96 h): 35 nM; IC50 ([4]; NCI-H460, 96 h): 38 nM; IC50 [5]: 34 nM; IC50 ([6]; Caco-2, 96 h): 66 nM; IC50 [7]: 70 nM"
"C[C@@H](O)[C@@H](C)Nc1nc(Nc2ccc(S(=O)(=O)C3CC3)cc2)ncc1C(F)(F)F [C1, (2R,3R)-3-[2-(4-Cyclopropanesulphonylphenylamino)-5-trifluoromethylpyrimidin-4-ylamino]butan-2-ol, reference compound]",8,6,52,,26,65,37,46,63,78,0.8,20.7,17.4,IC50 [10]: 51 nM
